# Active and inactive are the calls of the source. The rule behind the calls is not given here.
# How the values were obtained:
# [1] = Solubility of the compound in buffer
# [2] = (§1) Intrinsic clearance in mouse liver microsomes at […] preincubated for 5 mins followed by NADPH addition measured by LC-MS/MS analysis; type: ADME, microsome; conditions: liver microsomes, read-out: CLH
# [3] = Drug metabolism in mouse liver microsomes at […] preincubated for 5 mins followed by NADPH addition measured after 30 mins by LC-MS/MS analysis; type: ADME, microsome; conditions: read-out: Drug metabolism
# [4] = Apparent permeability across apical to basolateral side in human Caco2 cells at 10 uM after 60 mins by LC-MS/MS analysis; conditions: Caco-2
# [5] = Apparent permeability across basolateral to apical side in human Caco2 cells at 10 uM after 60 mins by LC-MS/MS analysis; conditions: Caco-2
# [6] = Efflux ratio of permeability in human Caco2 cells at 10 uM after 60 mins by LC-MS/MS analysis; conditions: Caco-2
# [7] = biological target: Oxidized purine nucleoside triphosphate hydrolase (Homo sapiens) (UniProt P36639); test: Inhibition of human full length MTH1 at 20 uM using 8-Oxo-2-dGTP as substrate preincubated for 15 mins followed substrate addition measured after 1 hr by PPilight pyrophosphate-detection based assay
# [8] = Apparent permeability across apical to basolateral side in human Caco2 cells at 2 uM after 2 hrs by LC-MS/MS analysis; type: ADME, cell-based; conditions: Caco-2
# [9] = Apparent permeability across basolateral to apical side in human Caco2 cells at 2 uM after 2 hrs by LC-MS/MS analysis; type: ADME, cell-based; conditions: Caco-2
# [10] = Efflux ratio of apparent permeability in human Caco2 cells at 2 uM after 2 hrs by LC-MS/MS analysis; conditions: Caco-2
# Liver = test: as §1; type: ADME, microsome; conditions: microsomes, 1000 µM
# [11] = biological target: Oxidized purine nucleoside triphosphate hydrolase (Homo sapiens) (UniProt P36639)
solubility [1] [µM],microsomal CLint at 1000 µM [2] [µL/min/mg],metabolised at 0.5 h [3] [%],"Papp A→B at 1 h, 10 µM [4] [×10⁻⁶ cm/s]","Papp B→A at 1 h, 10 µM [5] [×10⁻⁶ cm/s]","efflux ratio at 1 h, 10 µM [6]",SMILES,other results
250,244,97,69,46,0.7,c1ccc(C2CCCN2c2ccnc3[nH]ccc23)cc1 (centres undefined),–
–,–,–,–,–,–,CCNC(=O)c1cc2c(N3CCOC[C@@H]3C)ccnc2n1C,inhibition [7]: inactive
250,–,–,–,–,–,CNC(=O)c1cc2c(-c3cccc(Cl)c3)ccnc2[nH]1,–
100,130,85,41,63,1.6,CCNC(=O)c1cc2c(N3CCCC3c3ccccc3)ccnc2[nH]1 (centres undefined),–
250,–,–,–,–,–,c1cnc2c(c1)CCN2c1ccnc2[nH]ccc12,–
–,24,29,–,–,–,O=C(NC1COC1)c1cc2c(N3CCCC3c3cccnc3)ccnc2[nH]1 (centres undefined),–
50,–,–,–,–,–,Clc1cccc(-c2ccnc3[nH]c(-c4cnco4)cc23)c1,–
250,–,–,–,–,–,CN(C)C(=O)c1cc2c(-c3cccc(Cl)c3)ccnc2[nH]1,–
250,156,90,–,–,–,CCNC(=O)c1cc2c(N3CCOCC3c3ccccc3)ccnc2[nH]1 (centres undefined),"Papp A→B at 2 h, 2 µM [8]: 63 ×10⁻⁶ cm/s; Papp B→A at 2 h, 2 µM [9]: 89 ×10⁻⁶ cm/s; efflux ratio at 2 h, 2 µM [10]: 1.4"
250,–,100,39,35,0.9,c1ccc2c(c1)OCCN2c1ccnc2[nH]ccc12,microsomal intrinsic clearance (Liver): Unstable
10,–,–,–,–,–,c1ccc2c(c1)CCN(c1ccnc3[nH]ccc13)C2,–
250,–,–,–,–,–,c1ccc(C2CN(c3ccnc4[nH]ccc34)CCO2)cc1 (centres undefined),–
1000,153,92,75,66,0.9,COC(C)(C)C1CCCN1c1ccnc2[nH]ncc12 (centres undefined),–
250,44,50,13,76,5.7,O=C(NC1CC1)c1cc2c(N3CCCC3c3ccccn3)ccnc2[nH]1 (centres undefined),–
100,–,–,–,–,–,Clc1cccc(-c2ccnc3[nH]ncc23)c1,–
500,–,–,–,–,–,c1cc(-c2cnc3[nH]ccc3c2)c2cc[nH]c2n1,ΔTm [11]: 7.9 °C
1000,232,97,88,73,0.8,c1ccc(C2COCCN2c2ccnc3[nH]ncc23)cc1 (centres undefined),–

solubility [1] [µM],microsomal CLint at 1000 µM [2] [µL/min/mg],metabolised at 0.5 h [3] [%],"Papp A→B at 1 h, 10 µM [4] [×10⁻⁶ cm/s]","Papp B→A at 1 h, 10 µM [5] [×10⁻⁶ cm/s]","efflux ratio at 1 h, 10 µM [6]",SMILES,other results
50,–,–,–,–,–,Cc1cc2c(-c3cccc(Cl)c3)ccnc2[nH]1,–
1000,54,56,–,–,–,CCNC(=O)c1cc2c(N3CCCC3C(C)(C)OC)ccnc2[nH]1 (centres undefined),"Papp A→B at 2 h, 2 µM [8]: 170 ×10⁻⁶ cm/s; Papp B→A at 2 h, 2 µM [9]: 225 ×10⁻⁶ cm/s; efflux ratio at 2 h, 2 µM [10]: 1.3"
100,–,–,–,–,–,NC(=O)c1cc2c(-c3cccc(Cl)c3)ccnc2[nH]1,–
500,36,43,–,–,–,CCNC(=O)c1cc2c(N3CCOC[C@@H]3C)ccnc2[nH]1,"Papp A→B at 2 h, 2 µM [8]: 148 ×10⁻⁶ cm/s; Papp B→A at 2 h, 2 µM [9]: 209 ×10⁻⁶ cm/s; ΔTm [11]: 21 °C"
2000,–,–,–,–,–,c1cncc(-c2ccnc3[nH]ccc23)c1,ΔTm [11]: 8.2 °C
500,48,53,15,72,4.7,CCNC(=O)c1cc2c(N3CCCC3c3ccccn3)ccnc2[nH]1 (centres undefined),–
500,49,52,4,31,8.3,CCNC(=O)c1cc2c(N3CCCC3c3cccnc3)ccnc2[nH]1 (centres undefined),–
100,115,83,18,18,1,O=C(NC1CC1)c1cc2c(-c3cccc(Cl)c3)ccnc2[nH]1,–
250,–,–,–,–,–,CCNC(=O)c1cc2c(-c3cccc(Cl)c3)ccnc2[nH]1,–
10,–,–,–,–,–,OCc1cc2c(-c3cccc(Cl)c3)ccnc2[nH]1,–
250,–,–,–,–,–,N#Cc1cc2c(-c3cccc(Cl)c3)ccnc2[nH]1,–
250,222,99,74,63,0.8,c1ccc(C2CCCN2c2ccnc3[nH]ncc23)cc1 (centres undefined),–
1000,–,–,–,–,–,CNC(=O)c1cc2c(-c3cccnc3)ccnc2[nH]1,ΔTm [11]: 14.4 °C
250,–,–,–,–,–,Clc1cccc(-c2ccnc3[nH]ccc23)c1,–
500,45,48,–,–,–,CCNC(=O)c1cc2c(N3CCOCC3C3CC3)ccnc2[nH]1 (centres undefined),"Papp A→B at 2 h, 2 µM [8]: 24 ×10⁻⁶ cm/s; Papp B→A at 2 h, 2 µM [9]: 79 ×10⁻⁶ cm/s; efflux ratio at 2 h, 2 µM [10]: 3.3"
250,25,33,7,46,6.7,O=C(NC1COC1)c1cc2c(N3CCCC3c3ccccn3)ccnc2[nH]1 (centres undefined),–
2000,–,–,–,–,–,CCOC(=O)c1ccnc2[nH]ccc12,–

SMILES,solubility [1] [µM],microsomal CLint at 1000 µM [2] [µL/min/mg],metabolised at 0.5 h [3] [%],"Papp A→B at 1 h, 10 µM [4] [×10⁻⁶ cm/s]","Papp B→A at 1 h, 10 µM [5] [×10⁻⁶ cm/s]","efflux ratio at 1 h, 10 µM [6]",other results
c1cncc(C2CCCN2c2ccnc3[nH]ncc23)c1 (centres undefined),1000,45,54,44,50,1.1,–

# Source: ChEMBL document CHEMBL4033791, “Creation of a Novel Class of Potent and Selective MutT Homologue 1 (MTH1) Inhibitors Using Fragment-Based Screening and Structure-Based Drug Design” (J Med Chem, 2018)
